{
  "source": "patent US9546129B2",
  "about": "“DTPA prodrugs, compositions thereof, and methods of using the same” (priority 2012, dated 2017)",
  "key": {"[1]": {"experiment": "Precipitation / solubility study in pH 3.0 buffer", "assay_type": "physicochemical", "description": "A precipitation study was performed to estimate the concentration at which no precipitation occurs. Initially, 12 samples of C2E2 were prepared at concentrations ranging from 40-150 mg/mL in pH 3.0 buffer in steps of 10 mg/mL. The solutions were left to stir until precipitation occurred.\nThree samples of C2E2 at 60, 70 and 100 mg/mL in pH 3.0 buffer were prepared and stirred at room temperature. At 0.083, […], 1, 2, 4, 6, 20, 24 and 44 hours 0.5 mL samples were withdrawn centrifuged at 14,000×g and the concentration of supernatant measured by HPLC-CAD. At each time-point the pH of the supernatant was also measured."}, "[2]": {"experiment": "Single dose toxicology study in rats (UNC-11.240-RMTD)", "assay_type": "in vivo", "conditions": "rat"}, "^241Am contaminated rats": {"system": "^241Am contaminated rats", "experiment": "C2E2 single dose ^241Am decorporation in rats (IM contamination)", "assay_type": "in vivo, Sprague Dawley rat", "conditions": "for Cage Wash ^241Am / Feces ^241Am / Liver burden / Total Decorporation / Urine ^241Am: single dose 24 h after IM ^241Am, 7 days", "description": "This study was to assess the efficacy of a single oral gavage dose of C2E2 in ^241Am contaminated rats. A 200 μL aliquot was withdrawn from a stock solution of ^241Am nitrate (0.1 mCi in 5 mL 1 M HNO3), evaporated to dryness, dissolved in concentrated HNO3 (15 M, 5 mL) then evaporated to dryness and dissolved in dilute HNO3 (0.1 M, 8 mL) to form the injection solution. Groups of 4 female Sprague-Dawley rats were contaminated with 250 nCi of ^241Am nitrate by IM injection ([…]) then were administered single doses of C2E2 by gavage at 200, 600, or 1000 mg/kg under ad lib feeding conditions utilizing a 10% w/w solution in sterile water (dose volumes were 2, 6, and 10 mL/kg, for the 200, 600, and 1000 mg/kg doses, respectively). For the fasted component of the study, the animals were fasted 24 hours before treatment then for 2 hours post drug administration. Control groups with ad lib access to food and water were either untreated or administered an IV dose of the calcium salt of DTPA (Ca-DTPA) at 14 mg/kg (target dose volume of 0.7 mL/kg and concentration of 20 mg/mL). Treatment was administered 1 day after contamination. All animals were euthanized 7 days after contamination and the following tissues were collected: liver, both kidneys, both femurs as well as the ipsilateral and the contralateral hind leg muscle tissue and the pelt from the injection site. Urine and feces were collected from the time of contamination through euthanasia. Cage washings were also collected at the end of the study and considered part of total urine collection. Two aliquots (100 μL) of the injection solution were removed and ^241Am gamma activity was determined using radiomatic detection. The average of these standards is the injected dose used for all animals. All tissues and samples were counted in a similar manner. Americium content was expressed as a percentage of the injected dose. Overall recovery of radioactivity across all groups in this study was approximately 90%. […] The primary route by which both DTPA and C2E2 enhanced elimination of ^241Am occurred was by urinary clearance. […] Fecal clearance of ^241Am was not altered by feeding status, an observation that is consistent with the similar liver burden between the two groups at the end of the study. […] As with DTPA, enhanced decorporation by C2E2 occurred through enhanced urinary clearance.\nMale and female Sprague Dawley rats (n=4/gender/dose) were administered single oral doses of diethylenetriaminepentaacetic acid diethyl ester (C2E2) by gavage 24 hours after intramuscular contamination with ^241Am(NO3)3 (250 nCi) under ad libitum and fasted conditions. Animals received single oral nominal doses of 200, 600, or 1000 mg/kg C2E2. Untreated animals and animals treated with an intravenous dose of Ca-DTPA ([…]) 24 hours after contamination served as controls; only ad libitum conditions were used for control animals. Total radionuclide decorporation and radionuclide tissue burden were evaluated seven days after contamination.\nMale and female Sprague Dawley rats were contaminated with ^241Am(NO3)3 (0.25 μCi) by intramuscular injection (0.1 mL, 0.1 M HNO3) into the right hind leg, under isoflurane anesthesia. Immediately after injection, body weights were recorded (Day 0 weight) and animals were placed in individual metabolic cages.\nApproximately eight hours after contamination—and 16 hours before test article administration—rats assigned to the Fasted groups had access to food restricted by removing the food chamber from their metabolic cages and collecting all loose chow from their housing chambers. Food chambers were replaced 1 hour after oral gavage treatment, restoring access to food. At all other times all animals had ad libitum access to food.\nMale and female Sprague-Dawley rats assigned to test groups each received a single oral gavage dose of 0, 200, 600, or 1000 mg/kg of C2E2 utilizing a 10% w/w solution in water 24 hours after contamination. […]"}, "[3]": {"conditions": "C2E2 200 mg/kg gavage, ad lib, female rats"}, "[4]": {"conditions": "C2E2 200 mg/kg gavage, fasted, female rats"}, "[5]": {"conditions": "C2E2 600 mg/kg gavage, ad lib, female rats"}, "[6]": {"conditions": "C2E2 600 mg/kg gavage, fasted, female rats"}, "[7]": {"conditions": "C2E2 1000 mg/kg gavage, ad lib, female rats"}, "[8]": {"conditions": "C2E2 1000 mg/kg gavage, fasted, female rats"}},
  "note": "Read-outs that look alike come from different tables or passages of the source.",
  "data": [
    {"smiles": "CCOC(=O)CN(CCN(CCN(CC(=O)O)CC(=O)OCC)CC(=O)O)CC(=O)O", "note": "[C2E2, 6,9-bis(carboxymethyl)-3-(2-ethoxy-2-oxoethyl)-11-oxo-12-oxa-3,6,9-triazatetradecan-1-oic acid]", "values": [
      {"measurement": "Time of sudden precipitation from supersaturated solution", "setting": "[1]; 100 mg/ml in pH 3.0 buffer, stirred at room temperature", "value": "20 to 24", "unit": "h"},
      {"measurement": "solubility", "setting": "[1]; Lot 050, solutions at this concentration precipitated over time, read-out: Solubility, initially determined", "value": 100, "unit": "mg/mL"},
      {"measurement": "solubility", "setting": "[1]; aqueous buffer, thermodynamic from solid, pH 3.0 buffer, room temperature, read-out: Solubility at pH 3.0", "value": "60 to 70", "unit": "mg/mL"},
      {"measurement": "C2E2 concentration above which precipitation was observed", "setting": "[1]; pH 3.0 buffer, 24 hours stirring then 48 hours standing at room temperature", "value": "above 60 mg/mL"},
      {"measurement": "C2E2 concentration above which precipitation was observed", "setting": "[1]; pH 3.0 buffer, after 24 hours stirring", "value": "above 90 mg/mL"},
      {"measurement": "Maximum tolerated single dose", "setting": "[2]", "value": 2000, "unit": "mg/kg"},
      {"measurement": "Cage Wash ^241Am", "setting": "^241Am contaminated rats; [3]", "value": "1.8 ± 0.5", "unit": "%"},
      {"measurement": "Feces ^241Am", "setting": "^241Am contaminated rats; [3]", "value": "5.9 ± 0.8", "unit": "%"},
      {"measurement": "Liver burden", "setting": "^241Am contaminated rats; [3]", "value": "17.7 ± 2.1", "unit": "% injected"},
      {"measurement": "Total Decorporation", "setting": "^241Am contaminated rats; [3]", "value": "14.4 ± 0.7", "unit": "% injected"},
      {"measurement": "Urine ^241Am", "setting": "^241Am contaminated rats; [3]", "value": "6.7 ± 1.5", "unit": "%"},
      {"measurement": "Cage Wash ^241Am", "setting": "^241Am contaminated rats; [4]", "value": "1.3 ± 0.5", "unit": "%"},
      {"measurement": "Feces ^241Am", "setting": "^241Am contaminated rats; [4]", "value": "4.7 ± 2.1", "unit": "%"},
      {"measurement": "Liver burden", "setting": "^241Am contaminated rats; [4]", "value": "20.9 ± 3.5", "unit": "% injected"},
      {"measurement": "Total Decorporation", "setting": "^241Am contaminated rats; [4]", "value": "14.3 ± 3.2", "unit": "% injected"},
      {"measurement": "Urine ^241Am", "setting": "^241Am contaminated rats; [4]", "value": "8.4 ± 1.3", "unit": "%"},
      {"measurement": "Cage Wash ^241Am", "setting": "^241Am contaminated rats; [5]", "value": "2.2 ± 0.8", "unit": "%"},
      {"measurement": "Feces ^241Am", "setting": "^241Am contaminated rats; [5]", "value": "7.7 ± 2.0", "unit": "%"},
      {"measurement": "Liver burden", "setting": "^241Am contaminated rats; [5]", "value": "18.6 ± 4.5", "unit": "% injected"},
      {"measurement": "Total Decorporation", "setting": "^241Am contaminated rats; [5]", "value": "22.3 ± 3.1", "unit": "% injected"},
      {"measurement": "Urine ^241Am", "setting": "^241Am contaminated rats; [5]", "value": "12.4 ± 1.3", "unit": "%"},
      {"measurement": "Cage Wash ^241Am", "setting": "^241Am contaminated rats; [6]", "value": "2.6 ± 0.8", "unit": "%"},
      {"measurement": "Feces ^241Am", "setting": "^241Am contaminated rats; [6]", "value": "7.3 ± 1.5", "unit": "%"},
      {"measurement": "Liver burden", "setting": "^241Am contaminated rats; [6]", "value": "18.9 ± 2.3", "unit": "% injected"},
      {"measurement": "Total Decorporation", "setting": "^241Am contaminated rats; [6]", "value": "24.2 ± 3.3", "unit": "% injected"},
      {"measurement": "Urine ^241Am", "setting": "^241Am contaminated rats; [6]", "value": "14.3 ± 2.9", "unit": "%"},
      {"measurement": "Cage Wash ^241Am", "setting": "^241Am contaminated rats; [7]", "value": "3.4 ± 0.3", "unit": "%"},
      {"measurement": "Feces ^241Am", "setting": "^241Am contaminated rats; [7]", "value": "6.9 ± 1.7", "unit": "%"},
      {"measurement": "Liver burden", "setting": "^241Am contaminated rats; [7]", "value": "14.5 ± 1.5", "unit": "% injected"},
      {"measurement": "Total Decorporation", "setting": "^241Am contaminated rats; [7]", "value": "23.8 ± 3.0", "unit": "% injected"},
      {"measurement": "Urine ^241Am", "setting": "^241Am contaminated rats; [7]", "value": "13.5 ± 1.7", "unit": "%"},
      {"measurement": "Cage Wash ^241Am", "setting": "^241Am contaminated rats; [8]", "value": "4.5 ± 0.7", "unit": "%"},
      {"measurement": "Feces ^241Am", "setting": "^241Am contaminated rats; [8]", "value": "7.1 ± 1.3", "unit": "%"},
      {"measurement": "Liver burden", "setting": "^241Am contaminated rats; [8]", "value": "13.7 ± 3.1", "unit": "% injected"},
      {"measurement": "Total Decorporation", "setting": "^241Am contaminated rats; [8]", "value": "31.3 ± 5.5", "unit": "% injected"},
      {"measurement": "Urine ^241Am", "setting": "^241Am contaminated rats; [8]", "value": "19.8 ± 3.9", "unit": "%"},
      {"measurement": "Efficacy compared with intravenous Ca-DTPA", "setting": "^241Am contaminated rats; C2E2 1000 mg/kg single oral dose vs Ca-DTPA 13.3 mg/kg iv, no equivalence analysis", "value": "comparable, in terms of efficacy, to an intravenous dose of Ca-DTPA (13.3 mg/kg)"},
      {"measurement": "Effect of fasting on efficacy of the C2E2 dose", "setting": "^241Am contaminated rats; daily urinary and fecal americium, male and female rats", "value": "not altered by fasting rats prior to their C2E2 treatment"},
      {"measurement": "Skeletal burden vs untreated controls (statistics)", "setting": "^241Am contaminated rats; female rats", "value": "not significantly changed by C2E2 treatment"},
      {"measurement": "Dose with significantly enhanced decorporation vs untreated controls", "setting": "^241Am contaminated rats; female rats, p<0.001", "value": "above 600 mg/kg"},
      {"measurement": "^241Am liver burden vs untreated controls (statistics)", "setting": "^241Am contaminated rats; female rats, p<0.01", "value": "Only the reduction in burden following the 1000 mg/kg dose was statistically significant"},
      {"measurement": "Wound site retention of americium vs untreated controls (statistics)", "setting": "^241Am contaminated rats; male and female rats", "value": "did not correspond with a significant change in tissue burden compared to untreated controls at any single C2E2 dose"},
      {"measurement": "Dose with significant reduction of estimated skeletal americium burden vs untreated controls", "setting": "^241Am contaminated rats; male rats", "value": "≥ 600", "unit": "mg/kg"},
      {"measurement": "^241Am liver burden vs untreated controls (statistics)", "setting": "^241Am contaminated rats; male rats", "value": "significantly reduced compared to untreated controls at doses of 200 mg/kg (p<0.05) and 1000 mg/kg (p<0.001)"},
      {"measurement": "Dose with significantly increased total decorporation vs untreated controls", "setting": "^241Am contaminated rats; male rats, p<0.001", "value": "≥ 600", "unit": "mg/kg"}
    ]}
  ]
}
